These results are taken from ChEMBL document CHEMBL1795229, “Vasorelaxant effects of macrocyclic bis(bibenzyls) from liverworts” (Bioorg Med Chem, 2011).

Experiment [1] concerns Aorta. Put plainly: Vasorelaxant activity in Wistar rat endothelium-intact aortic rings assessed as inhibition of phenylephrine-induced contractions at 30 uM after 10 to 30 mins. It counts as functional, tissue-based.
In experiment [2] the test system is Aorta. The experiment can be described thus: Vasorelaxant activity in Wistar rat endothelium-intact aortic rings assessed as inhibition of phenylephrine-induced contractions after 10 to 30 mins. It counts as functional, tissue-based.
Experiment [3] relates to Aorta. Put plainly: Vasorelaxant activity in Wistar rat endothelium-denuded aortic rings assessed as inhibition of phenylephrine-induced contractions in calcium-free medium at 30 uM pretreated with nicardipine. It counts as functional, tissue-based.
Experiment [4] has as its system Aorta. Put plainly: Vasorelaxant activity in Wistar rat endothelium-denuded aortic rings assessed as inhibition of phenylephrine-induced contractions at 10 to 100 uM. It counts as functional, tissue-based. The conditions noted are these: TDE = time-dependent effect.
The subject of experiment [5] is Aorta. The experiment can be described thus: Vasorelaxant activity in Wistar rat endothelium-intact aortic rings assessed as inhibition of phenylephrine-induced contractions at 10 to 100 uM after 10 to 60 mins. It counts as functional.
Experiment [6] deals with Aorta. The experiment can be described thus: Vasorelaxant activity in Wistar rat endothelium-denuded aortic rings assessed as inhibition of phenylephrine-induced contractions at 10 to 100 uM after 10 to 60 mins. It counts as functional.
Experiment [7] concerns Aorta. Put plainly: Vasorelaxant activity in Wistar rat endothelium-denuded aortic rings assessed as inhibition of phenylephrine-induced contractions presence of 1 mM of potassium channel inhibitor TEA. It counts as functional, tissue-based.
For experiment [8], the system named is Aorta. The experiment can be described thus: Vasorelaxant activity in Wistar rat endothelium-intact aortic rings assessed as inhibition of phenylephrine-induced contractions at 10 to 100 uM. The conditions noted are these: TDE = time-dependent effect. The class given is functional, tissue-based.
Experiment [9] concerns Aorta. Put plainly: Vasorelaxant activity in Wistar rat endothelium-intact aortic rings assessed as inhibition of phenylephrine-induced contractions after 10 to 60 mins. The class given is functional, tissue-based.
Experiment [10] relates to Aorta. Put plainly: Vasorelaxant activity in Wistar rat endothelium-denuded aortic rings assessed as inhibition of calcium chloride-induced contractions in calcium-free potassium-rich medium at 30 uM. The class given is functional, tissue-based.
Experiment [11] concerns Aorta. The experiment can be described thus: Vasorelaxant activity in Wistar rat aortic rings assessed as inhibition of phenylephrine-induced contractions at 10 to 100 uM after 10 to 60 mins in presence of 100 uM of NO synthase inhibitor L-NMMA. The class given is functional, tissue-based.

Active and inactive are the calls of the source. The calls are words filed in the database; no cut-off is given here.

For `COC1Cc2cccc(c2)Oc2c(O)cccc2CCc2ccc(cc2)Oc2cc1cc(O)c2O` (configuration not stated), the inhibition result with Aorta [1] is “Active”.

On to `COc1cc(CCc2cccc(Oc3c(O)cccc3CCc3ccc(O)cc3)c2)cc(O)c1O`, for which, in the experiment on Aorta [1], the inhibition result was “Active”.

In the case of `COc1cc2cc(c1OC)Oc1ccc(cc1)CCc1ccc(OC)c(OC)c1Oc1cccc(c1)CC2`, the inhibition result in the experiment with Aorta [1] is “Active”.

Take `COc1ccc2c(c1)CCc1ccc(OC)c(c1)-c1cc(ccc1OC)CCc1ccc-2c(OC)c1`: in the experiment with Aorta [1], the inhibition entry is “Active”.

With `COc1cccc(CCc2ccc(O)c(Oc3ccc(CCc4cccc(O)c4)cc3)c2)c1`, in the experiment on Aorta [1], the inhibition entry was “Active”.

For the molecule `COc1cccc2c1Oc1cccc(c1)CCc1cc(OC)c(OC)c(c1)Oc1ccc(cc1)CC2`, the inhibition entry in the experiment on Aorta [1] was “Active”.

Consider `Oc1cc2cc(c1O)Oc1ccc(cc1)CCc1ccc(O)c(O)c1Oc1cccc(c1)CC2`, for which, in the experiment with Aorta [1], the inhibition result is “Active”.

As to `Oc1cc2cc(c1O)Oc1ccc(cc1)CCc1cccc(O)c1Oc1cccc(c1)CC2`, in the experiment with Aorta [1], the inhibition result was “Active”.

Turning to `Oc1ccc(CCc2cccc(O)c2O)cc1Oc1ccc(CCc2cccc(O)c2O)cc1`, the inhibition entry in the experiment with Aorta [1] was “Active”.

On to `Oc1ccc2c(c1)/C=C/c1ccc(O)c(c1)Oc1ccc(cc1)CCc1cccc(c1)O2`, for which the inhibition result with Aorta [1] is “Active”.

Regarding `Oc1ccc2c(c1)CCc1ccc(O)c(c1)-c1cc(ccc1O)/C=C\c1cccc(c1)O2`, the inhibition result in the experiment on Aorta [1] is “Active”.

For the molecule `Oc1ccc2c(c1)CCc1ccc(cc1)Oc1cc(cc(-c3cc4cc(c3O)Oc3ccc(cc3)CCc3cc(O)ccc3-c3ccc(cc3O)CC4)c1O)CCc1ccc-2c(O)c1`, the inhibition result in the experiment with Aorta [1] is “Active”.

Turning to `Oc1ccc2cc1Oc1ccc(cc1)CCc1cccc(c1)Oc1c(O)cccc1CC2`, in the experiment with Aorta [1], the inhibition result is “Active”.

As to `CC(=O)OCC[N+](C)(C)C` [ACETYLCHOLINE], the IC50 with Aorta [2] stood at 1 µM.

As for `Oc1ccc2cc1-c1cc(ccc1O)CCc1c(ccc(O)c1O)Oc1cccc(c1)/C=C\2` [ISOPLAGIOCHIN B], the inhibition result with Aorta [3] and in the experiment on Aorta [1] was “Active” each time. In addition, the inhibition result in the experiment with Aorta [4] was “tde”; with Aorta [8], “tde”; in the experiment with Aorta [9], “Dose-dependent effect”. In addition, the results for the “inhibition (INH)” value in the experiment with Aorta [5] and in the experiment on Aorta [6] were greater than 60% and greater than 80%, respectively. The inhibition entry in the experiment on Aorta [7] and with Aorta [10] was “inactive” throughout.

For the molecule `Oc1ccc2c(c1)CCc1ccc(O)c(c1)-c1cc(ccc1O)CCc1ccc-2c(O)c1` [ISOPLAGIOCHIN D], the inhibition result in the experiment with Aorta [3], in the experiment on Aorta [7], with Aorta [1] and in the experiment on Aorta [10] was “Active” in each case. The inhibition result in the experiment with Aorta [4] was “tde”; in the experiment on Aorta [8] it was “tde”; with Aorta [9], “Dose-dependent effect”. Also, the “inhibition (INH)” value in the experiment on Aorta [5] was greater than 60%; in the experiment with Aorta [6] it was greater than 80%.

For `Oc1cccc(CCc2ccc(Oc3cc(CCc4cccc(O)c4)cc(O)c3O)cc2)c1` [PERROTETTIN F], the inhibition result in the experiment with Aorta [3], in the experiment with Aorta [7], in the experiment with Aorta [1] and in the experiment on Aorta [10] was “Active” in each case. Also, the inhibition entry with Aorta [4] is “tde”; in the experiment on Aorta [8] it was “tde”; with Aorta [9] it was “Dose-dependent effect”. Also, the results for the “inhibition (INH)” value with Aorta [5] and in the experiment with Aorta [6] were greater than 60% and greater than 80%, respectively.

For the molecule `COc1cc2c(cc1O)-c1ccc(O)cc1CCc1cc(O)c(O)c(c1)Oc1ccc(cc1)CC2` [PLAGIOCHIN A], the “inhibition (INH)” value in the experiment with Aorta [5] was greater than 60%. Further, the inhibition entry in the experiment with Aorta [11] and in the experiment with Aorta [6] was “inactive” each time. The values for the inhibition entry in the experiment on Aorta [8] and in the experiment on Aorta [9] were “tde” and “Dose-dependent effect”, respectively. Further, in the experiment on Aorta [1], the inhibition result is “Active”.

As to `Oc1ccc2c(c1)CCc1ccc(cc1)Oc1cc(ccc1O)CCc1ccc-2c(O)c1` [RICCARDI C], the “inhibition (INH)” value with Aorta [5] was greater than 60%. Besides, the inhibition entry in the experiment with Aorta [6] is “inactive”. Also, the inhibition result with Aorta [8] was “tde”; in the experiment with Aorta [9], “Dose-dependent effect”. For the same molecule, in the experiment on Aorta [1], the inhibition entry is “Active”.

`COc1ccc2cc1Oc1ccc(cc1)CCc1cc(O)ccc1-c1ccc(cc1O)CC2` [RICCARDI F]: in the experiment with Aorta [5], the “inhibition (INH)” value is recorded as greater than 60%. Besides, the inhibition entry in the experiment on Aorta [6] was “inactive”. The inhibition entry in the experiment with Aorta [8] is “tde”; with Aorta [9], “Dose-dependent effect”. Besides, the inhibition result in the experiment on Aorta [1] was “Active”.

For `COc1ccc2c(c1)CCc1ccc(cc1)Oc1cc(ccc1O)CCc1ccc-2c(O)c1` [RICCARDIN A], in the experiment on Aorta [5], the “inhibition (INH)” value is on record as greater than 60%. Also, the inhibition entry with Aorta [6] was “inactive”. In addition, the inhibition result with Aorta [8] is “tde”; with Aorta [9] it was “Dose-dependent effect”. The inhibition result in the experiment on Aorta [1] was “Active”.
